The results in this text go back to patent EP2070527A1, “Inhibitors of fungal biofilm-formation” (QuoNova Europe GmbH, priority 2007, dated 2009).

The test system of this assay is Candida paratropicalis. In words: MBEC assay (biofilm inhibition). Type of assay: cell-based. The conditions noted are these: biofilm grown 24 hours at 37±2°C on pegs, logR = log reduction; for log reduction at 100 µM: test compound 100 µm (so in the source); for log reduction at 10 µM: test compound 10 µM. The procedure: TEST METHOD: MBEC™ Assay The compound to be tested was dissolved in DMSO to obtain a concentration that was 100 times that of the final concentration required (1mM for the 10µM assay and 10mM for the 100µM assay). 1.5 µL of the above solution was placed into each well of a 96 well plate (final volume in each well = 150 µL, final DMSO concentration of 1% (v/v)). To grow the organism and form a biofilm, a cryogenic stock of Candida paratropicalis (at - 70°C) was used. A first sub-culture was streaked out onto TSA (tryptic soy agar), upon which the plate was incubated at 37±2°C for 24 hours and stored wrapped in parafilm at 4 °C afterwards. From this first sub-culture, a second sub-culture was streaked out onto TSA. The plate was incubated at 37±2°C for 24 hours. The second sub-culture was used within 24 hours starting from the time it was first removed from incubation. Using the second sub-culture an inoculum in 3 mL sterile water that matches a 0.5 McFarland Standard (1.5 x 10^8 cells per mL) was created in a glass test tube using a sterile cotton swab. […] of this solution was diluted in 22mL TSB (tryptic soy broth) medium to a cell density of approximately 6.0 x 10^5 cells per mL. The diluted organism was inverted 3-5 times to achieve uniform mixing of the organism. One sample (100µl) of the diluted organism was used for an inoculum check by serially diluting and spot plating on TSA. To prepare a challenge plate, 20 µl of the diluted organism was added to each well of a 96 well plate except the sterility control wells. The test compounds were added to the wells to make up final concentrations of 10 µM and 100 µM (1.5 µL /well) in the designated location in the test plate. 128.5 µL of TSB was placed in each of the wells. 130 µL of media was added to the growth control wells. 128.5 µL of media+ 1.5 µL of DMSO were added to a second set of growth control wells. 150 µL of media was added to the sterility controls. Each sample was run in triplicate. The plate was covered by a lid with a peg per well and wrapped in parafilm and placed on a shaker in a humidified incubator (GeneVac) at 37±2°C for 24 hours set at 110 rpm. Rinse plate(s) of 0.9% saline (200 µL per well) were prepared in a sterile 96 well microtitre plate. Lid-associated pegs were rinsed in 0.9% saline for approximately 1-2 minutes. The peg lid was transferred to the recovery media (1.0% Tween 80 in CAMHB) then sonicated for 30 minutes to dislodge surviving biofilm. Following sonication, 100 µl from each well of the 96 well plate was placed into the first 12 wells of the first row of a 96 well microtiter plate. 180 µl of 0.9% sterile saline was placed in the remaining rows. A serial dilution (10^0-10^-7) was prepared by moving 20 µl down each of the 8 rows. 20µl from each well was removed and spot plated on a prepared TSA. In the remaining recovery plate, 100 µl of fresh growth media (1.0% Tween 80 in CAMHB) was placed in each well to replace the amount removed. The recovery plate was covered with a regular lid and incubated at 37±2°C for 24 hours and read visually to confirm antimicrobial activity of the test compounds. The following compounds have been tested regarding their efficiency (logR = log reduction) against Candida paratropicalis: […]

Regarding `CCCCCCCCCC(=O)CC(=O)N1CCC(N(C)C)C1` (centres unmarked) [Example 6], the log reduction at 100 µM is 3.87. As to `CCCCCCCCCC(=O)CC(=O)Nc1ccno1` [Example 3], the log reduction at 10 µM is 1.26 and the log reduction at 100 µM was found to be 1.1. `CCCCCCC(=O)CC(=O)Nc1ccno1` [Example 2] displayed a log reduction at 10 µM of 1.12 and a log reduction at 100 µM of 0.65. The compound `CCCCCCCCCC(=O)CC(=O)Nc1nc(C)co1` [Example 4] came in with a log reduction at 100 µM of 1.71.

Turning to `CCCCCCCCCC(=O)CC(=O)N(C)c1ccc(F)cc1` [Example 1], the log reduction at 100 µM was found to be 0.62. Same read-out and setting: the same measure for `CCCCCCCCCC(=O)CC(=O)N1CCN(C)CC1` [Example 5]: 2.83.
